Patent US20130035314A1, “METHODS AND KITS FOR DETECTING RISK FACTORS FOR DEVELOPMENT OF JAW OSTEONECROSIS AND METHODS OF TREATMENT THEREOF” (priority 2010, published 2013)

Assays:
[1] = Cohort study of multiple myeloma patients on IV BP: risk factors for BONJ (univariate and multivariate logistic regression); assay type: in vivo, human
Protocol: Multiple myeloma patients who were on intravenous BP (zoledronate or pamidronate) were recruited to voluntarily participate in this Institution Review Board (IRB) approved study. These patients signed informed consents and were followed routinely in the outpatient clinic. In addition to MM treatments, patients received either pamidronate 90mg or zoledronate 4mg IV monthly. Demographic and clinical information were verified from reviewing the medical records and tabled for analysis. Certain life style factors such as smoking at any time in the past, as well as certain co-morbidities such as diabetes mellitus, and prior drugs used were among the data collected on all patients.
Patients were considered to have BONJ if all of the following three characteristics are present (American Association of Oral and Maxillofacial Surgeons position paper, J Oral Maxillofac Surg, 65(3):369-76, 2007): 1) Current or previous treatment with a bisphosphonate; 2) Exposed bone in the maxillofacial region that has persisted for more than eight weeks; and 3) No history of radiation therapy to the jaws. […]
Baseline characteristics were compared by student's t-test or chi-square tests as appropriate. Allele frequencies deviations from Hardy-Weinberg Equilibrium (HWE) were assessed using chi-square tests with one degree of freedom. […]

[2] = Chart review of BONJ incidence in bisphosphonate-treated cancer patients; assay type: in vivo, human; settings: outpatient bone marrow transplant clinic, all patients had myeloma; pamidronate only
From the text: Medical and dental charts at the University of Florida (UF) and the associated Veterans Administration Medical Center (VAMC) were reviewed. […] There were 21 males. […] Fourteen patients had modest increases in their serum creatinine concentrations. The average number of previous chemo/radiotherapy regimens was 3.5. […] Primary disease status was as follows: 12 patients in clinical remission, 5 with stable disease and 10 with progressive disease. Eight patients received statin therapy and 6 had diabetes mellitus. The median length of treatment with bisphosphonate (BP) before the diagnosis of BONJ was 28 months. BONJ involved the mandible in 21 patients, maxilla in 4 and both in 2 patients. The most frequent presentation was pain, swelling, and exposed bone (FIG. 1). […] The BONJ incidence differed among the 3 centers where these patients were treated. […] The incidence in the VAMC was 4.2% while the incidence in the Cancer Center clinic at UF was 1.7%. In the latter two groups, patients had mostly solid tumors. The results described herein are consistent with the reports of increased incidence of BONJ with greater duration of therapy and that myeloma patients are more likely to develop the complication than solid tumor patients.

O=C1CCC(N2C(=O)c3ccccc3C2=O)C(=O)N1 (stereo not drawn) [Thalidomide]
Odds Ratio for BONJ ([1]; multivariate logistic regression analysis of potential risk factors, MM patients on IV BP): 0.106

NCCC(O)(P(=O)(O)O)P(=O)(O)O [pamidronate]
BONJ incidence [2]: 4%

O=P(O)(O)C(O)(Cn1ccnc1)P(=O)(O)O [zoledronate]
association between BONJ and treatment ([1]; univariate analysis, persisted in multivariate logistic regression, P=0.00029, 78 MM patients, 12 with BONJ): significant association
